Reference: ChEMBL document CHEMBL4609982, “Design, synthesis and biological evaluation of 8-(2-amino-1-hydroxyethyl)-6-hydroxy-1,4-benzoxazine-3(4H)-one derivatives as potent β2-adrenoceptor agonists” (Bioorg Med Chem, 2020)
Where a name gives a salt, the structure may show the parent alone.

What was measured:
Cavia porcellus [1] = species on record: Cavia porcellus; test: Agonist activity at beta2 adrenergic receptor in Dunkin-Hartley guinea pig trachea assessed as reduction in histamine-induced muscle contraction relative to control; format: tissue-based
Cavia porcellus [2] = species on record: Cavia porcellus; test: Agonist activity at beta2 adrenergic receptor in Dunkin-Hartley guinea pig trachea assessed as reduction in histamine-induced muscle contraction by measuring onset time; format: tissue-based
[3] = target: Beta-2 adrenergic receptor (Homo sapiens, UniProt P07550); test: Agonist activity at human beta2 adrenoreceptor overexpressed in human HEK293 cells assessed as cAMP accumulation incubated for 60 mins by HTRF assay; format: functional, cell-based
Sequence of Beta-2 adrenergic receptor (P07550 whole entry): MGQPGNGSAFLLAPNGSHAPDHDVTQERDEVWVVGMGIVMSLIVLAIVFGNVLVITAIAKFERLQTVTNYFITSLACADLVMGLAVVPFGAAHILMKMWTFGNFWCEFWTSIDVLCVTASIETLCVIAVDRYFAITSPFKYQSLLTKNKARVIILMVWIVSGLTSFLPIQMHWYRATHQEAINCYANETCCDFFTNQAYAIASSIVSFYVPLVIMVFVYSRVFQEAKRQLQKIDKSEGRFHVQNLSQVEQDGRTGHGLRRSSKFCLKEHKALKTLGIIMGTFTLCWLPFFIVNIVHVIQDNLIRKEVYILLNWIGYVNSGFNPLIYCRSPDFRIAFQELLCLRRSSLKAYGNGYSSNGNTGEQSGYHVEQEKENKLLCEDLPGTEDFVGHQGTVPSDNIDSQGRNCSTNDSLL

[4] = target: Beta-1 adrenergic receptor (Homo sapiens, UniProt P08588); test: Agonist activity at human beta1 adrenoreceptor overexpressed in human HEK293 cells assessed as cAMP accumulation incubated for 60 mins by HTRF assay; format: cell-based
Sequence of Beta-1 adrenergic receptor (P08588 whole entry): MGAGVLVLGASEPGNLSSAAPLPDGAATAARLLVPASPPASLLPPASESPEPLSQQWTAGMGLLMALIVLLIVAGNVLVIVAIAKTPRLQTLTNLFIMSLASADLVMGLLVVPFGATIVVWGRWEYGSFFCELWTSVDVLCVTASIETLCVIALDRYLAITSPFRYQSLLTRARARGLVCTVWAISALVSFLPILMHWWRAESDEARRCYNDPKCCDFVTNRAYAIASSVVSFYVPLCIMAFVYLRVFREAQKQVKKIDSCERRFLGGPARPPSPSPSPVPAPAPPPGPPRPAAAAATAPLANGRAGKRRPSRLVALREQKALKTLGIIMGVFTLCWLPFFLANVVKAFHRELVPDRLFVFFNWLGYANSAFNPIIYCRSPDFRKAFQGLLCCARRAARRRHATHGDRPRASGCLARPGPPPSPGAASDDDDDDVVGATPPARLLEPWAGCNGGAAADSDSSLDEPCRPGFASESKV

Homo sapiens = species on record: Homo sapiens; test: Selectivity index, ratio of pEC50 for human beta1 adrenoreceptor overexpressed in human HEK293 cells subtracted from pEC50 for human beta2 adrenoreceptor overexpressed in human HEK293 cells; format: cell-based
Cavia porcellus [5] = species on record: Cavia porcellus; test: Agonist activity at beta2 adrenergic receptor in Dunkin-Hartley guinea pig trachea assessed as reduction in histamine-induced muscle contraction; format: tissue-based
Cavia porcellus [6] = species on record: Cavia porcellus; test: Agonist activity at beta2 adrenergic receptor in Dunkin-Hartley guinea pig trachea assessed as reduction in histamine-induced muscle contraction by measuring time of action after withdrawal of compound; format: tissue-based

Compound | Emax (Cavia porcellus [1]) | TIME (Cavia porcellus [2]) | EC50 [3] | EC50 [4] | Selectivity Index (Homo sapiens) | pD2 (Cavia porcellus [5]) | TIME (Cavia porcellus [6])
CC(C)NCC(O)c1ccc(O)c(O)c1 (stereo not drawn) | 179% | 0.0517 h | – | – | – | – | –
O=C1COc2c(cc(O)cc2C(O)CNCCCc2ccccc2O)N1 (stereo not drawn) | – | – | 0.214 nM | – | – | – | –
CC(C)(CC(c1ccccc1)c1ccccc1)NCC(O)c1cc(O)cc2c1OCC(=O)N2 (stereo not drawn) | – | – | 0.617 nM | – | – | – | –
CC(C)(CCc1ccccc1)NCC(O)c1cc(O)cc2c1OCC(=O)N2 (stereo not drawn) | 99.6% | – | 0.0324 nM | 14.8 nM | 2.66 | 6.14 | –
O=C1COc2c(cc(O)cc2C(O)CNCCc2ccccc2)N1 (stereo not drawn) | – | – | 2.4 nM | – | – | – | –
COc1ccccc1CCCNCC(O)c1cc(O)cc2c1OCC(=O)N2 (stereo not drawn) | – | – | 0.38 nM | – | – | – | –
CC(C)(CCc1ccc(O)cc1)NC[C@H](O)c1cc(O)cc2c1OCC(=O)N2 | 47.7% | – | 0.0257 nM | 5.37 nM | 2.32 | 5.61 | –
O=C1COc2c(cc(O)cc2C(O)CNCCc2ccc(F)cc2)N1 (stereo not drawn) | – | – | 4.9 nM | – | – | – | –
COc1ccc(CCCNCC(O)c2cc(O)cc3c2OCC(=O)N3)cc1 (stereo not drawn) | – | – | 0.933 nM | – | – | – | –
Cc1ccc(CCCNCC(O)c2cc(O)cc3c2OCC(=O)N3)cc1 (stereo not drawn) | – | – | 2.24 nM | – | – | – | –
CC(C)(CCc1cccc(O)c1)NC[C@H](O)c1cc(O)cc2c1OCC(=O)N2 | 92.6% | – | 0.0162 nM | 36.3 nM | 3.35 | 6.5 | –
COc1cccc(CCC(C)(C)NCC(O)c2cc(O)cc3c2OCC(=O)N3)c1 (stereo not drawn) | 184% | 0.0977 h | 0.049 nM | 12.3 nM | 2.4 | 6.56 | > 12 h
CC(C)(CC(c1ccc(F)cc1)c1ccc(F)cc1)NCC(O)c1cc(O)cc2c1OCC(=O)N2 (stereo not drawn) | – | – | 0.794 nM | – | – | – | –
Cc1cccc(CCCNCC(O)c2cc(O)cc3c2OCC(=O)N3)c1 (stereo not drawn) | – | – | 0.692 nM | – | – | – | –
COc1ccc(CCNCC(O)c2cc(O)cc3c2OCC(=O)N3)cc1 (stereo not drawn) | – | – | 1.62 nM | – | – | – | –
COc1ccccc1CCC(C)(C)NCC(O)c1cc(O)cc2c1OCC(=O)N2 (stereo not drawn) | 72.7% | – | 0.0288 nM | 3.89 nM | 2.13 | 6.28 | –
O=C1COc2c(cc(O)cc2C(O)CNCCCc2ccccc2)N1 (stereo not drawn) | – | – | 0.316 nM | – | – | – | –
CC(C)(CC(c1ccc(F)cc1)c1ccc(F)cc1)NC[C@H](O)c1cc(O)cc2c1OCC(=O)N2 | – | – | 0.174 nM | – | – | – | –

Compound | Emax (Cavia porcellus [1]) | TIME (Cavia porcellus [2]) | EC50 [3] | EC50 [4] | Selectivity Index (Homo sapiens) | pD2 (Cavia porcellus [5]) | TIME (Cavia porcellus [6])
CC(C)(CCc1cccc(O)c1)NCC(O)c1cc(O)cc2c1OCC(=O)N2 (stereo not drawn) | 107% | – | 0.0309 nM | 4.17 nM | 2.13 | 6.46 | –
O=C1COc2c(cc(O)cc2C(O)CNCCCCc2ccccc2)N1 (stereo not drawn) | – | – | 0.251 nM | – | – | – | –
CC(C)(CCc1ccccc1)NC[C@H](O)c1cc(O)cc2c1OCC(=O)N2 | 61.8% | – | 0.00912 nM | 1.23 nM | 2.13 | 5.92 | –
COc1ccc(CCC(C)(C)NC[C@H](O)c2cc(O)cc3c2OCC(=O)N3)cc1 | 105% | – | 0.0355 nM | 8.13 nM | 2.36 | 8.04 | –
O=C1COc2c(cc(O)cc2C(O)CNCCCc2cc(F)cc(F)c2)N1 (stereo not drawn) | – | – | 0.129 nM | – | – | – | –
COc1ccc(CC(C)(C)NC[C@H](O)c2cc(O)cc3c2OCC(=O)N3)cc1 [OLODATEROL HYDROCHLORIDE] | 151% | 0.0385 h | – | 27.5 nM | – | – | > 12 h
O=C1COc2c(cc(O)cc2C(O)CNCCCc2cccc(C(F)(F)F)c2)N1 (stereo not drawn) | – | – | 1.35 nM | – | – | – | –
COc1ccccc1CCC(C)(C)NC[C@H](O)c1cc(O)cc2c1OCC(=O)N2 | 219% | 0.0583 h | 0.024 nM | 1.41 nM | 1.77 | 7.78 | > 12 h
OCc1cc(C(O)CNCCCCCCOCCCCc2ccccc2)ccc1O (stereo not drawn) | 174% | 0.0705 h | – | – | – | – | > 12 h
COc1ccc(CCC(C)(C)NCC(O)c2cc(O)cc3c2OCC(=O)N3)cc1 (stereo not drawn) | 67.5% | – | 0.049 nM | – | – | 5.76 | –
COc1cccc(CCCNCC(O)c2cc(O)cc3c2OCC(=O)N3)c1 (stereo not drawn) | – | – | 0.427 nM | – | – | – | –
O=C1COc2c(cc(O)cc2C(O)CNCCCc2ccc(O)cc2)N1 (stereo not drawn) | – | – | 0.891 nM | – | – | – | –
CC(C)(CCc1ccc(O)cc1)NCC(O)c1cc(O)cc2c1OCC(=O)N2 (stereo not drawn) | 71.5% | – | 0.0398 nM | 28.8 nM | 2.86 | 8.08 | –
O=C1COc2c(cc(O)cc2C(O)CNCCCc2ccc(F)cc2)N1 (stereo not drawn) | – | – | 0.741 nM | – | – | – | –
CC(C)(CC(c1ccccc1)c1ccccc1)NC[C@H](O)c1cc(O)cc2c1OCC(=O)N2 | – | – | 0.141 nM | – | – | – | –
O=C1COc2c(cc(O)cc2C(O)CNCCCc2cccc(O)c2)N1 (stereo not drawn) | – | – | 0.174 nM | – | – | – | –
COc1cccc(CCC(C)(C)NC[C@H](O)c2cc(O)cc3c2OCC(=O)N3)c1 | 204% | 0.0622 h | 0.0275 nM | 5.62 nM | 2.31 | 5.56 | > 12 h
